Read-outs that look alike come from different tables or passages of the source.
How the values were obtained:
[1] = Single dose po/sc bioavailability and elimination half-life study; assay type: in vivo; details: rat, plasma, female Sprague Dawley rats; for bioavailability: po
Description: To evaluate the oral (po) and subcutaneous (sc) bioavailability of estetrol (E4) and to determine the elimination half-life, single dose studies were performed in female Sprague Dawley rats followed by frequent blood sampling over a 24 hours interval.
Female Sprague Dawley rats were equipped with a permanent silatic heart catheter, as described by Kuipers et al. (1985, Gastroenterology, 88, 403-411). Rats were allowed to recover from surgery for 5 days and were than administered 0.05, 0.5, or 5 mg/kg E4 in 0.5 ml arachis oil. For sc administration, E4 was injected in the neck area using a 1 ml syringe and 20 g needle. For po administration of E4, rats were lightly anaesthesized with halothene/N2O/O2 and E4 was directly applied intragastrically using a plastic stomach intubator. Blood samples were subsequently collected via the heart catheter in heparinized tubes at 0.5, 1, 2, 4, 8 and 24 hours. Erytlrocytes were removed by centrifugation at 5000×g for 10 minutes at 4° C. and blood plasma was stored at −20° C. After thawing the plasma samples, liquid-liquid extraction (hexane/diethylether) was employed to prepare the E4-containing plasma samples for HPLC analysis (Perkin Elmer 200) and tandem mass spectrometry using a PE Sciex 3000 tandem mass spectrometer and APCI interface. With each sample batch, a calibration curve with 6 calibrators was recorded. The calibration curve was calculated using linear regression (correlation coefficient>0.98), which permitted quantitation of plasma concentrations. For each rat plasma, sampled at different time intervals, data were collected.
Plasma E4 concentration data were analysed with “WinNonLin, edition 3.1” and involved pharmacokinetic parameters for Cmax, half-life and AUC0-24.

[2] = tritium labeled, intravenous, two adult women; cited from earlier work
uterus = details: continuous administration from a subcutaneous depot; cited from earlier work
[3] = target: T1, rat uterine cytosol estrogen receptor (Rattus norvegicus, UniProt P06211); details: cited from earlier work
T1 construct: rat uterine cytosol estrogen receptor; host or cells: rat uterus (cytosol / nuclear fraction)
T1 sequence (P06211 1-600): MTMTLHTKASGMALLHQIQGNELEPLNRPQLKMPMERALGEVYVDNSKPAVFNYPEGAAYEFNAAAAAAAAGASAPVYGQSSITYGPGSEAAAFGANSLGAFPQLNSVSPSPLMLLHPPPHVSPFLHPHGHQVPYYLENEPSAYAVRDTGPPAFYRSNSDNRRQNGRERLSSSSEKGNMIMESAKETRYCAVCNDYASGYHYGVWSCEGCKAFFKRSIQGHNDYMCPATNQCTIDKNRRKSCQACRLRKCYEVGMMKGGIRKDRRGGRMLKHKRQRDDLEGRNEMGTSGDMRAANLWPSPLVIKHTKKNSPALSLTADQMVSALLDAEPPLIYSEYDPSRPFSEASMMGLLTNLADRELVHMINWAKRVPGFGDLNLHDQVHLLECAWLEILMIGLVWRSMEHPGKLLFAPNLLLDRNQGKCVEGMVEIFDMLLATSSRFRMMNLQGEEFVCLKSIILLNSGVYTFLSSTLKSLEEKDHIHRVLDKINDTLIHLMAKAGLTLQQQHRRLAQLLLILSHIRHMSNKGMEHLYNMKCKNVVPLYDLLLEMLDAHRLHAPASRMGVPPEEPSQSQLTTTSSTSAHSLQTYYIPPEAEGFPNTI

[4] = target: T2, rat uterine nuclear estrogen receptor (Rattus norvegicus, UniProt P06211); details: cited from earlier work
T2 construct: rat uterine cytosol estrogen receptor; host or cells: rat uterus (cytosol / nuclear fraction)
T2 sequence (P06211 1-600): T1 sequence (P06211 1-600)

For C[C@]12CC[C@@H]3c4ccc(O)cc4CC[C@H]3[C@@H]1[C@@H](O)[C@@H](O)[C@@H]2O [E4, 1,3,5(10)-estratrien-3,15α,16α,17β-tetrol], the half-life ([1]; other: subcutaneous and oral, sc and po single dose) was 2 to 3 h, the bioavailability ([1]; single dose 5.0 mg/kg, read-out: oral bioavailability relative to sc administered E4) was 30 to 60% and the bioavailability ([1]; single dose 0.05, 0.5 mg/kg, read-out: oral bioavailability relative to sc administration) was 80 to 100%. For the same compound, the excretion [2] was “rapidly and completely excreted in urine as the glucosiduronate”, the metabolism [2] was “virtually no metabolism except for conjugation” and the uterotrophic activity (uterus) was “very weak uterotrophic activity”. For the same compound, the “relative binding affinity, of 17β-estradiol (100%)” value [3] was 0.5% and the “relative binding affinity, of 17β-estradiol (100%)” value [4] was 0.3%.

Reference: patent US7723320B2, “Use of estrogen compounds to increase libido in women” (Pantarhei Bioscience B.V., priority 2001, dated 2010)
